Measurements: US20130196954A1, “METHOD OF TREATING ACNE” (priority 2010, published 2013)

Tests used:
moderate or severe acne = assay: Phase 2 randomized, double-blind, placebo-controlled clinical study, efficacy; assay type: in vivo, human; settings: ITT; for Reduction from baseline in inflammatory lesion count / Success Rate (IGA clear or almost clear): oral once daily
Description: As used herein, “success rate” means the percentage of subjects who achieve a score of “clear” or “almost clear” by Investigator's Global Assessment (IGA) (Inflammatory): A phase 2, multi-center, randomized, double-blind, parallel group, placebo-controlled study was conducted. The treatments were (1) 40 mg doxycycline tablet containing 30 mg IR and 10 mg DR (CD2575/101); (2) doxycycline 100 mg capsules; and (3) placebos (double dummy), which were administered orally once daily. Patients having moderate or severe acne (25 to 75 inflammatory lesions on the face (including the nose) were subjects in the study. Total 660 subjects (220/group) were divided in a 1:1:1 randomization for the three treatments. The treatments lasted 16 weeks. The following were measured for efficacy studies: change from baseline to week 16 (LOCF, ITT) in inflammatory lesion counts (primary endpoint); success rate at week 16 (LOCF, ITT); percent change in inflammatory lesion counts from baseline to week 16 (LOCF, ITT); percent change in total lesion counts from baseline to week 16 (LOCF, ITT); change from baseline to week 16 (LOCF, ITT) in non-inflammatory lesion counts; global assessment for inflammatory lesions of truncal acne at baseline, week 12, and week 16/ET visit, etc. The investigator evaluated the subject's acne at every study visit using the Investigator's Global Assessment (Inflammatory) scale as that described above. The IGA scale in this study focused on inflammatory lesions as the mode of study drug action in acne vulgaris is primarily anti-inflammatory. Onset of efficacy was to be determined for the change in inflammatory lesions and for the success rate, by analyzing time points earlier than week 16

[1] = Phase 2 clinical study, safety (adverse events); assay type: in vivo, human
Description: A phase 2, multi-center, randomized, double-blind, parallel group, placebo-controlled study was conducted. The treatments were (1) 40 mg doxycycline tablet containing 30 mg IR and 10 mg DR (CD2575/101); (2) doxycycline 100 mg capsules; and (3) placebos (double dummy), which were administered orally once daily.
Patients having moderate or severe acne (25 to 75 inflammatory lesions on the face (including the nose) were subjects in the study. Total 660 subjects (220/group) were divided in a 1:1:1 randomization for the three treatments. The treatments lasted 16 weeks.
The safety studies included standard safety reporting. Adverse events of special interest included phototoxicity; pseudotumor cerebri; and pseudomembranous colitis. Vital signs were observed by the investigator at each visit. Lab tests were conducted at 0, 8 & 16 weeks.

[2] = N = 216 (40 mg), N = 223 (100 mg)

C[C@H]1c2cccc(O)c2C(=O)C2=C(O)[C@]3(O)C(=O)C(C(N)=O)=C(O)[C@@H](N(C)C)[C@@H]3[C@@H](O)[C@@H]21 [Doxycycline 100 mg, doxycycline]
Median % Change in Inflammatory Lesion Count (moderate or severe acne; Week 12 (LOCF)): −46.7% | Median % change in Total Lesion Count (moderate or severe acne; Week 12 (LOCF)): −30.6% | Reduction in inflammatory lesion count, delta vs placebo (moderate or severe acne; Week 12 (LOCF)): 0.3 | Success Rate, delta vs placebo (moderate or severe acne; Week 12 (LOCF)): −1.4 | Reduction from baseline in inflammatory lesion count (moderate or severe acne; Week 12 (LOCF)): 12.2 (0.604) | Success Rate (IGA clear or almost clear) (moderate or severe acne; Week 12 (LOCF)): 5.4% (0.536) | Median % Change in Inflammatory Lesion Count (moderate or severe acne; Week 16 (LOCF)): −47.3% | Median % change in Total Lesion Count (moderate or severe acne; Week 16 (LOCF)): −35.9% | Reduction in inflammatory lesion count, delta vs placebo (moderate or severe acne; Week 16 (LOCF)): 0.3 | Success Rate, delta vs placebo (moderate or severe acne; Week 16 (LOCF)): 6.1 | Reduction from baseline in inflammatory lesion count (moderate or severe acne; Week 16 (LOCF)): 12.9 (0.595) | Success Rate (IGA clear or almost clear) (moderate or severe acne; Week 16 (LOCF)): 13.8% (0.035) | drug related AEs (nausea, vomiting & headaches) ([1]; 16 weeks once daily oral): 38 | Total Number of AE(s) ([1]; 16 weeks once daily oral, N = 216 (40 mg), N = 223 (100 mg)): 50 | Abdominal discomfort, number of subjects [1, 2]: 4 | Abdominal discomfort, percent of subjects [1, 2]: (1.8%) | Dizziness, number of subjects [1, 2]: 1 | Dizziness, percent of subjects [1, 2]: (0.4%) | Headache, number of subjects [1, 2]: 6 | Headache, percent of subjects [1, 2]: (2.7%) | Nausea, number of subjects [1, 2]: 12 | Nausea, percent of subjects [1, 2]: (5.4%) | Tinnitus, number of subjects [1, 2]: 0 | Total Number of Subjects with AE(s), number [1, 2]: 38 | Total Number of Subjects with AE(s), percent [1, 2]: (17.0%) | Urticaria, number of subjects [1, 2]: 2 | Urticaria, percent of subjects [1, 2]: (0.9%) | Vomiting, number of subjects [1, 2]: 14 | Vomiting, percent of subjects [1, 2]: (6.3%) | Vulvovaginal mycotic infection, number of subjects [1, 2]: 1 | Vulvovaginal mycotic infection, percent of subjects [1, 2]: (0.4%)
